The molecules below were run against T1, Avi-KRAS G12D (1-169) GppNHp/RAF1 RBD-3xFLAG (52-151) (Homo sapiens, UniProt P01116, G12D) (assay: Raf1-KRAS G12D-GppNHP disruption HTRF assay (Biological Example 1)). Details: KRAS G12D-GppNHp/RAF1 RBD HTRF.
T1 construct: Avi-KRAS G12D (1-169)
Format: binding
Summary of the method: (§1)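 Compounds were tested for disruption of KRAS–RAF1 RBD binding by HTRF in 50 mM Tris pH 7.5, 100 mM NaCl, 5 mM MgCl2, 0.1% BSA, 0.01% Tween, 10% DMSO. Protein mix was incubated 1 h at room temperature with shaking, then detection reagents added for another 1 h. Activity expressed as percent of DMSO control.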

T1 sequence (P01116 1-169 isoform P01116-2 G12D): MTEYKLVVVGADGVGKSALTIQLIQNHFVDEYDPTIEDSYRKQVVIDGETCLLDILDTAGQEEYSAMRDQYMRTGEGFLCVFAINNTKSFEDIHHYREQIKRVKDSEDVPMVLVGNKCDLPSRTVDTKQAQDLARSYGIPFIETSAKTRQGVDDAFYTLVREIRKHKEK

Q: With `CN(c1nc(OC[C@@]23CCCN2C[C@H](F)C3)nc2c(F)c(-c3ccc(F)c4sc(N)c(C#N)c34)c(C(F)(F)F)cc12)[C@H]1CCCOC1` [Compound 280] as the molecule, how does the IC50 read?
A: 100 to 1000 nM

Q: Which IC50 does the source give for `CN1CC[C@H](N(C)c2nc(OC[C@@]34CCCN3C[C@H](F)C4)nc3c(F)c(-c4ccc(F)c5sc(N)c(C#N)c45)c(C(F)(F)F)cc23)CC1=O` [Compound 281] here?
A: 100 to 1000 nM

Q: How did the IC50 turn out when `N#Cc1c(N)sc2c(F)ccc(-c3c(C(F)(F)F)cc4c(N5CCO[C@@H](CO)C5)nc(OC[C@@]56CCCN5C[C@H](F)C6)nc4c3F)c12` [Compound 282] was run?
A: < 100 nM

Q: For `COC[C@H]1CN(c2nc(OC[C@@]34CCCN3C[C@H](F)C4)nc3c(F)c(-c4ccc(F)c5sc(N)c(C#N)c45)c(C(F)(F)F)cc23)CCO1` [Compound 283], which IC50 is on record?
A: 100 to 1000 nM

Q: How did the IC50 turn out when `CC(=O)NCCN(C)c1nc(OC[C@@]23CCCN2C[C@H](F)C3)nc2c(F)c(-c3ccc(F)c4sc(N)c(C#N)c34)c(C(F)(F)F)cc12` [Compound 284] was run?
A: 100 to 1000 nM

Q: `CN1C[C@H](N(C)c2nc(OC[C@@]34CCCN3C[C@H](F)C4)nc3c(F)c(-c4ccc(F)c5sc(N)c(C#N)c45)c(C(F)(F)F)cc23)CC1=O` [Compound 285] was tested. Which IC50 did it give?
A: 100 to 1000 nM

The molecules below were run against T2, Avi-KRAS G12R (1-169) GppNHp/RAF1 RBD-3xFLAG (52-151) (Homo sapiens, UniProt P01116, G12R) (assay: Raf1-KRAS G12R-GppNHP disruption HTRF assay (Biological Example 1)). Details: KRAS G12R-GppNHp/RAF1 RBD HTRF.
T2 construct: Avi-KRAS G12R (1-169)
T2 sequence (P01116 1-169 isoform P01116-2 G12R): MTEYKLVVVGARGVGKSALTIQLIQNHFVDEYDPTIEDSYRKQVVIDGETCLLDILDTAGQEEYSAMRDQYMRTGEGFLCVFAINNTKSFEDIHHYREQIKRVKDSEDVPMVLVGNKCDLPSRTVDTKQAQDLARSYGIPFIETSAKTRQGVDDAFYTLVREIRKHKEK
Format: binding
Summary of the method: as §1

Q: `CN(c1nc(OC[C@@]23CCCN2C[C@H](F)C3)nc2c(F)c(-c3ccc(F)c4sc(N)c(C#N)c34)c(C(F)(F)F)cc12)[C@H]1CCCOC1` [Compound 280] was tested. Which IC50 did it give?
A: 100 to 1000 nM

Q: Which IC50 does the source give for `CN1CC[C@H](N(C)c2nc(OC[C@@]34CCCN3C[C@H](F)C4)nc3c(F)c(-c4ccc(F)c5sc(N)c(C#N)c45)c(C(F)(F)F)cc23)CC1=O` [Compound 281] here?
A: 100 to 1000 nM

Q: `N#Cc1c(N)sc2c(F)ccc(-c3c(C(F)(F)F)cc4c(N5CCO[C@@H](CO)C5)nc(OC[C@@]56CCCN5C[C@H](F)C6)nc4c3F)c12` [Compound 282] was tested. Which IC50 did it give?
A: 100 to 1000 nM

Q: How did the IC50 turn out when `COC[C@H]1CN(c2nc(OC[C@@]34CCCN3C[C@H](F)C4)nc3c(F)c(-c4ccc(F)c5sc(N)c(C#N)c45)c(C(F)(F)F)cc23)CCO1` [Compound 283] was run?
A: 100 to 1000 nM

Q: `CC(=O)NCCN(C)c1nc(OC[C@@]23CCCN2C[C@H](F)C3)nc2c(F)c(-c3ccc(F)c4sc(N)c(C#N)c34)c(C(F)(F)F)cc12` [Compound 284] was tested. Which IC50 did it give?
A: 100 to 1000 nM

Q: `CN1C[C@H](N(C)c2nc(OC[C@@]34CCCN3C[C@H](F)C4)nc3c(F)c(-c4ccc(F)c5sc(N)c(C#N)c45)c(C(F)(F)F)cc23)CC1=O` [Compound 285] was tested. Which IC50 did it give?
A: 100 to 1000 nM

The molecules below were run against T3, Avi-KRAS G12V (1-169) GppNHp/RAF1 RBD-3xFLAG (52-151) (Homo sapiens, UniProt P01116, G12V) (assay: Raf1-KRAS G12V-GppNHP disruption HTRF assay (Biological Example 1)). Details: KRAS G12V-GppNHp/RAF1 RBD HTRF.
T3 construct: Avi-KRAS G12V (1-169)
T3 sequence (P01116 1-169 isoform P01116-2 G12V): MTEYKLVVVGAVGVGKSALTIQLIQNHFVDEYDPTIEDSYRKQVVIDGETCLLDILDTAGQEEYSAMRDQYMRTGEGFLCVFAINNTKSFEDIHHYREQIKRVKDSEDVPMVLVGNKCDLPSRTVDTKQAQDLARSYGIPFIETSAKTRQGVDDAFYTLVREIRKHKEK
Format: binding
Summary of the method: as §1

Q: `CN(c1nc(OC[C@@]23CCCN2C[C@H](F)C3)nc2c(F)c(-c3ccc(F)c4sc(N)c(C#N)c34)c(C(F)(F)F)cc12)[C@H]1CCCOC1` [Compound 280] was tested. Which IC50 did it give?
A: 100 to 1000 nM

Q: For `CN1CC[C@H](N(C)c2nc(OC[C@@]34CCCN3C[C@H](F)C4)nc3c(F)c(-c4ccc(F)c5sc(N)c(C#N)c45)c(C(F)(F)F)cc23)CC1=O` [Compound 281], which IC50 is on record?
A: 1000 to 10000 nM

Q: `N#Cc1c(N)sc2c(F)ccc(-c3c(C(F)(F)F)cc4c(N5CCO[C@@H](CO)C5)nc(OC[C@@]56CCCN5C[C@H](F)C6)nc4c3F)c12` [Compound 282] was tested. Which IC50 did it give?
A: 100 to 1000 nM

Q: Which IC50 does the source give for `COC[C@H]1CN(c2nc(OC[C@@]34CCCN3C[C@H](F)C4)nc3c(F)c(-c4ccc(F)c5sc(N)c(C#N)c45)c(C(F)(F)F)cc23)CCO1` [Compound 283] here?
A: 100 to 1000 nM

Q: With `CC(=O)NCCN(C)c1nc(OC[C@@]23CCCN2C[C@H](F)C3)nc2c(F)c(-c3ccc(F)c4sc(N)c(C#N)c34)c(C(F)(F)F)cc12` [Compound 284] as the molecule, how does the IC50 read?
A: 100 to 1000 nM

Q: Which IC50 does the source give for `CN1C[C@H](N(C)c2nc(OC[C@@]34CCCN3C[C@H](F)C4)nc3c(F)c(-c4ccc(F)c5sc(N)c(C#N)c45)c(C(F)(F)F)cc23)CC1=O` [Compound 285] here?
A: 100 to 1000 nM

What follows are molecules tested against T4, Avi-KRAS WT (1-169) GppNHp/RAF1 RBD-3xFLAG (52-151) (Homo sapiens, UniProt P01116) (assay: Raf1-KRAS WT-GppNHP disruption HTRF assay (Biological Example 1)). Details: KRAS WT-GppNHp/RAF1 RBD HTRF.
T4 construct: Avi-KRAS WT (1-169)
T4 sequence (P01116 1-169 isoform P01116-2): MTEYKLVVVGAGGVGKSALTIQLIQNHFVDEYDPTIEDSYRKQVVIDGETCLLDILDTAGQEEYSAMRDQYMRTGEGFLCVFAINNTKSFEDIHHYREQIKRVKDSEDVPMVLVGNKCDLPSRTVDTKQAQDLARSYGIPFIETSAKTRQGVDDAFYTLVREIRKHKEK
Format: binding
Summary of the method: as §1

Q: With `CN(c1nc(OC[C@@]23CCCN2C[C@H](F)C3)nc2c(F)c(-c3ccc(F)c4sc(N)c(C#N)c34)c(C(F)(F)F)cc12)[C@H]1CCCOC1` [Compound 280] as the molecule, how does the IC50 read?
A: 100 to 1000 nM

Q: How did the IC50 turn out when `CN1CC[C@H](N(C)c2nc(OC[C@@]34CCCN3C[C@H](F)C4)nc3c(F)c(-c4ccc(F)c5sc(N)c(C#N)c45)c(C(F)(F)F)cc23)CC1=O` [Compound 281] was run?
A: 100 to 1000 nM

Q: `N#Cc1c(N)sc2c(F)ccc(-c3c(C(F)(F)F)cc4c(N5CCO[C@@H](CO)C5)nc(OC[C@@]56CCCN5C[C@H](F)C6)nc4c3F)c12` [Compound 282] was tested. Which IC50 did it give?
A: < 100 nM

Q: `COC[C@H]1CN(c2nc(OC[C@@]34CCCN3C[C@H](F)C4)nc3c(F)c(-c4ccc(F)c5sc(N)c(C#N)c45)c(C(F)(F)F)cc23)CCO1` [Compound 283] was tested. Which IC50 did it give?
A: 100 to 1000 nM

Q: With `CC(=O)NCCN(C)c1nc(OC[C@@]23CCCN2C[C@H](F)C3)nc2c(F)c(-c3ccc(F)c4sc(N)c(C#N)c34)c(C(F)(F)F)cc12` [Compound 284] as the molecule, how does the IC50 read?
A: 100 to 1000 nM

Q: Which IC50 does the source give for `CN1C[C@H](N(C)c2nc(OC[C@@]34CCCN3C[C@H](F)C4)nc3c(F)c(-c4ccc(F)c5sc(N)c(C#N)c45)c(C(F)(F)F)cc23)CC1=O` [Compound 285] here?
A: 100 to 1000 nM

Each molecule was assayed on GP2d cells (KRAS G12D) (assay: Cell-based pERK HTRF assay in GP2d cell (Biological Example 2)). Details: GP2d, GP2d (KRAS G12D) cells, pERK HTRF.
Summary of the method: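 HTRF read-out of pERK (excitation 320 nm, emission 615 nm) after lysates sat 4–24 h at room temperature with Eu cryptate and d2 antibodies.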

Q: Which IC50 does the source give for `CN(c1nc(OC[C@@]23CCCN2C[C@H](F)C3)nc2c(F)c(-c3ccc(F)c4sc(N)c(C#N)c34)c(C(F)(F)F)cc12)[C@H]1CCCOC1` [Compound 280] here?
A: < 100 nM

Q: With `CN1CC[C@H](N(C)c2nc(OC[C@@]34CCCN3C[C@H](F)C4)nc3c(F)c(-c4ccc(F)c5sc(N)c(C#N)c45)c(C(F)(F)F)cc23)CC1=O` [Compound 281] as the molecule, how does the IC50 read?
A: < 100 nM

Q: How did the IC50 turn out when `N#Cc1c(N)sc2c(F)ccc(-c3c(C(F)(F)F)cc4c(N5CCO[C@@H](CO)C5)nc(OC[C@@]56CCCN5C[C@H](F)C6)nc4c3F)c12` [Compound 282] was run?
A: < 100 nM

Q: `COC[C@H]1CN(c2nc(OC[C@@]34CCCN3C[C@H](F)C4)nc3c(F)c(-c4ccc(F)c5sc(N)c(C#N)c45)c(C(F)(F)F)cc23)CCO1` [Compound 283] was tested. Which IC50 did it give?
A: < 100 nM

Q: Which IC50 does the source give for `CC(=O)NCCN(C)c1nc(OC[C@@]23CCCN2C[C@H](F)C3)nc2c(F)c(-c3ccc(F)c4sc(N)c(C#N)c34)c(C(F)(F)F)cc12` [Compound 284] here?
A: < 100 nM

Q: `CN1C[C@H](N(C)c2nc(OC[C@@]34CCCN3C[C@H](F)C4)nc3c(F)c(-c4ccc(F)c5sc(N)c(C#N)c45)c(C(F)(F)F)cc23)CC1=O` [Compound 285] was tested. Which IC50 did it give?
A: < 100 nM

The molecules below were run on SW620 cells (KRAS G12V) (assay: Cell-based pERK HTRF assay in SW620 cell (Biological Example 4)). Details: Homo sapiens, SW-620, SW620 (KRAS G12V) cells, pERK HTRF.
Summary of the method: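 SW620 cells were treated for 4 h with compound in a 9-point half-log series from 1 μM top (0.25% DMSO), then lysed. Phospho-ERK was detected by HTRF with d2 and Eu cryptate antibodies after 4–24 h at room temperature, read at 615 nm emission.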

Q: `CN(c1nc(OC[C@@]23CCCN2C[C@H](F)C3)nc2c(F)c(-c3ccc(F)c4sc(N)c(C#N)c34)c(C(F)(F)F)cc12)[C@H]1CCCOC1` [Compound 280] was tested. Which IC50 did it give?
A: < 100 nM

Q: For `CN1CC[C@H](N(C)c2nc(OC[C@@]34CCCN3C[C@H](F)C4)nc3c(F)c(-c4ccc(F)c5sc(N)c(C#N)c45)c(C(F)(F)F)cc23)CC1=O` [Compound 281], which IC50 is on record?
A: < 100 nM

Q: How did the IC50 turn out when `N#Cc1c(N)sc2c(F)ccc(-c3c(C(F)(F)F)cc4c(N5CCO[C@@H](CO)C5)nc(OC[C@@]56CCCN5C[C@H](F)C6)nc4c3F)c12` [Compound 282] was run?
A: < 100 nM

Q: With `COC[C@H]1CN(c2nc(OC[C@@]34CCCN3C[C@H](F)C4)nc3c(F)c(-c4ccc(F)c5sc(N)c(C#N)c45)c(C(F)(F)F)cc23)CCO1` [Compound 283] as the molecule, how does the IC50 read?
A: < 100 nM

Q: For `CC(=O)NCCN(C)c1nc(OC[C@@]23CCCN2C[C@H](F)C3)nc2c(F)c(-c3ccc(F)c4sc(N)c(C#N)c34)c(C(F)(F)F)cc12` [Compound 284], which IC50 is on record?
A: < 100 nM

Q: Which IC50 does the source give for `CN1C[C@H](N(C)c2nc(OC[C@@]34CCCN3C[C@H](F)C4)nc3c(F)c(-c4ccc(F)c5sc(N)c(C#N)c45)c(C(F)(F)F)cc23)CC1=O` [Compound 285] here?
A: < 100 nM

Reference: patent US20260042764A1, “COMPOSITIONS AND METHODS FOR INHIBITION OF KRAS” (TheRas, Inc., priority 2022, published 2026)
